# Results from article PMC8944975, “Secretin Receptor as a Target in Gastrointestinal Cancer: Expression Analysis and Ligand Development” (Biomedicines, 2022).
# Where a SMILES comes first, the peptide text is derived from it. [ ]: non-standard residue; d: D form.
# Biological target: human SCTR (Homo sapiens, UniProt P47872)
# Test: β-arr2-GFP translocation assay run in antagonist mode; on IC50, inhibition of β-arr2-GFP translocation (Table 3): peptide 5 min at 37 °C
# Assay type: cell-based
# Design: expressed in transfected cells; host or cells: U2OS (human osteosarcoma), stably co-transfected with β-arrestin2-GFP
# Conditions: read-out: IC50, inhibition of β-arr2-GFP translocation (Table 2)
# Source text: U2OS-SCTR/β-arr2-GFP: human osteosarcoma cell line U2OS (purchased from ATCC/LGC Standards, Wesel, Germany) were stably transfected with plasmids encoding SCTR (Homo sapiens) and the fusion protein β-arrestin2-green fluorescent protein (GFP) (Rattus norvegicus-Aequorea victoria) (β-arr2-GFP).
# For analysis of antagonistic effects on SCTR, a slightly modified protocol of the β-arr2-GFP translocation was used. […] For analysis, cells were terminally fixed and permeabilized as previously described. The additional monitoring of IDCC fluorescence in the near-infrared channel (667 nm) provided another measure for receptor binding and activation.
# Chain of human SCTR (P47872 23-440): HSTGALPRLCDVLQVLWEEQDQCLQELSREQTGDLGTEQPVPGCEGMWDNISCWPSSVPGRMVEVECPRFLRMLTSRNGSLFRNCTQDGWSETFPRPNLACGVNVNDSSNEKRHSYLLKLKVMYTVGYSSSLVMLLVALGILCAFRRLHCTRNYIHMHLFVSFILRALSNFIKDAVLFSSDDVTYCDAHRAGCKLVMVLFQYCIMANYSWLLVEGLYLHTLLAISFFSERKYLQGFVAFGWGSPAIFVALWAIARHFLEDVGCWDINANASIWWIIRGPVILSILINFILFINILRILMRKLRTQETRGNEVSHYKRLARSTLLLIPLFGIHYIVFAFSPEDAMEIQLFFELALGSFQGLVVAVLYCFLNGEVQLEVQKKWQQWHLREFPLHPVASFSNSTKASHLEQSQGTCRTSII
row,IC50 [nM],Compound
1,2340 ± 366,CC(C)C[C@H](NC(=O)CNC(=O)[C@H](CCC(N)=O)NC(=O)[C@H](CC(C)C)NC(=O)[C@H](CC(C)C)NC(=O)[C@H](CCCNC(=N)N)NC(=O)[C@H](CCC(N)=O)NC(=O)[C@H](CC(C)C)NC(=O)[C@H](CCCNC(=N)N)NC(=O)[C@H](C)NC(=O)CNC(=O)[C@H](CCC(=O)O)NC(=O)[C@H](CCCNC(=N)N)NC(=O)[C@H](CC(C)C)NC(=O)[C@H](CCCNC(=N)N)NC(=O)[C@H](CO)NC(=O)[C@H](CC(C)C)NC(=O)[C@H](CCC(=O)O)NC(=O)[C@H](CO)NC(=O)[C@@H](NC(=O)[C@@H](N)Cc1ccccc1)[C@@H](C)O)C(=O)N[C@H](C(=O)O)C(C)C [Peptide 119]

# Same assay, conditions: read-out: IC50, inhibition of β-arr2-GFP translocation (Table 3)
row,IC50 [nM],Compound
1,1360 ± 322,CC(C)C[C@H](NC(=O)CNC(=O)[C@H](CCC(N)=O)NC(=O)[C@H](CC(C)C)NC(=O)[C@H](CC(C)C)NC(=O)[C@H](CCCNC(=N)N)NC(=O)[C@H](CCC(N)=O)NC(=O)[C@H](CC(C)C)NC(=O)[C@H](CCCNC(=N)N)NC(=O)[C@H](C)NC(=O)CNC(=O)[C@H](CCC(=O)O)NC(=O)[C@H](CCCNC(=N)N)NC(=O)[C@H](CC(C)C)NC(=O)[C@H](CCCNC(=N)N)NC(=O)[C@H](CO)NC(=O)[C@H](CC(C)C)NC(=O)[C@H](CCC(=O)O)NC(=O)[C@H](CO)NC(=O)[C@@H](NC(=O)[C@H](Cc1ccccc1)NC(=O)[C@H](N)CCCNC(=N)N)[C@@H](C)O)C(=O)N[C@H](C(=O)O)C(C)C [Peptide 125]
2,897 ± 108,CC(C)C[C@H](NC(=O)CNC(=O)[C@H](CCC(N)=O)NC(=O)[C@H](CC(C)C)NC(=O)[C@H](CC(C)C)NC(=O)[C@H](CCCNC(=N)N)NC(=O)[C@H](CCC(N)=O)NC(=O)[C@H](CC(C)C)NC(=O)[C@H](CCCNC(=N)N)NC(=O)[C@H](C)NC(=O)CNC(=O)[C@H](CCC(=O)O)NC(=O)[C@H](CCCNC(=N)N)NC(=O)[C@H](CC(C)C)NC(=O)[C@H](CCCNC(=N)N)NC(=O)[C@H](CO)NC(=O)[C@H](CC(C)C)NC(=O)[C@H](CCC(=O)O)NC(=O)[C@H](C)NC(=O)[C@@H](NC(=O)[C@H](Cc1ccccc1)NC(=O)[C@H](N)CCCNC(=N)N)[C@@H](C)O)C(=O)N[C@H](C(=O)O)C(C)C [Peptide 128] (H-[dR]FTAELSRLREGARLQRLLQGLV-OH)
3,1610 ± 185,CC(C)C[C@H](NC(=O)CNC(=O)[C@H](CCC(N)=O)NC(=O)[C@H](CC(C)C)NC(=O)[C@H](CC(C)C)NC(=O)[C@H](CCCNC(=N)N)NC(=O)[C@H](CCC(N)=O)NC(=O)[C@H](CC(C)C)NC(=O)[C@H](CCCNC(=N)N)NC(=O)[C@H](C)NC(=O)CNC(=O)[C@H](CCC(=O)O)NC(=O)[C@H](CCCNC(=N)N)NC(=O)[C@H](CC(C)C)NC(=O)[C@H](CCCNC(=N)N)NC(=O)[C@H](CO)NC(=O)[C@H](CC(C)C)NC(=O)[C@H](CCC(=O)O)NC(=O)[C@H](CO)NC(=O)[C@H](C)NC(=O)[C@H](Cc1ccccc1)NC(=O)[C@H](N)CCCNC(=N)N)C(=O)N[C@H](C(=O)O)C(C)C [Peptide 127]
4,998 ± 142,CC(C)C[C@H](NC(=O)CNC(=O)[C@H](CCC(N)=O)NC(=O)[C@H](CC(C)C)NC(=O)[C@H](CC(C)C)NC(=O)[C@H](CCCNC(=N)N)NC(=O)[C@H](CCC(N)=O)NC(=O)[C@H](CC(C)C)NC(=O)[C@H](CCCNC(=N)N)NC(=O)[C@H](C)NC(=O)CNC(=O)[C@H](CCC(=O)O)NC(=O)[C@H](CCCNC(=N)N)NC(=O)[C@H](CC(C)C)NC(=O)[C@H](CCCNC(=N)N)NC(=O)[C@H](C)NC(=O)[C@H](CC(C)C)NC(=O)[C@H](CCC(=O)O)NC(=O)[C@H](CO)NC(=O)[C@@H](NC(=O)[C@H](Cc1ccccc1)NC(=O)[C@H](N)CCCNC(=N)N)[C@@H](C)O)C(=O)N[C@H](C(=O)O)C(C)C [Peptide 131] (H-[dR]FTSELARLREGARLQRLLQGLV-OH)

# Continued, molecule first:
row,Compound,IC50 [nM]
1,CC(C)C[C@H](NC(=O)CNC(=O)[C@H](CCC(N)=O)NC(=O)[C@H](CC(C)C)NC(=O)[C@H](CC(C)C)NC(=O)[C@H](CCCNC(=N)N)NC(=O)[C@H](CCC(N)=O)NC(=O)[C@H](CC(C)C)NC(=O)[C@H](C)NC(=O)[C@H](C)NC(=O)CNC(=O)[C@H](CCC(=O)O)NC(=O)[C@H](CCCNC(=N)N)NC(=O)[C@H](CC(C)C)NC(=O)[C@H](CCCNC(=N)N)NC(=O)[C@H](CO)NC(=O)[C@H](CC(C)C)NC(=O)[C@H](CCC(=O)O)NC(=O)[C@H](CO)NC(=O)[C@@H](NC(=O)[C@H](Cc1ccccc1)NC(=O)[C@H](N)CCCNC(=N)N)[C@@H](C)O)C(=O)N[C@H](C(=O)O)C(C)C [Peptide 137] (H-[dR]FTSELSRLREGAALQRLLQGLV-OH),1860 ± 159
2,CC(C)C[C@H](NC(=O)CNC(=O)[C@H](CCC(N)=O)NC(=O)[C@H](CC(C)C)NC(=O)[C@H](CC(C)C)NC(=O)[C@H](CCCNC(=N)N)NC(=O)[C@H](CCC(N)=O)NC(=O)[C@H](CC(C)C)NC(=O)[C@H](CCCNC(=N)N)NC(=O)[C@H](C)NC(=O)CNC(=O)[C@H](CCC(=O)O)NC(=O)[C@H](CCCNC(=N)N)NC(=O)[C@H](CC(C)C)NC(=O)[C@H](CCCNC(=N)N)NC(=O)[C@H](CO)NC(=O)[C@H](CC(C)C)NC(=O)[C@H](CCC(=O)O)NC(=O)[C@H](CO)NC(=O)[C@@H](NC(=O)[C@H](C)NC(=O)[C@H](N)CCCNC(=N)N)[C@@H](C)O)C(=O)N[C@H](C(=O)O)C(C)C [Peptide 126],1760 ± 322
3,CC(C)C[C@H](NC(=O)CNC(=O)[C@H](CCC(N)=O)NC(=O)[C@H](CC(C)C)NC(=O)[C@H](CC(C)C)NC(=O)[C@H](CCCNC(=N)N)NC(=O)[C@H](CCC(N)=O)NC(=O)[C@H](CC(C)C)NC(=O)[C@H](CCCNC(=N)N)NC(=O)[C@H](C)NC(=O)CNC(=O)[C@H](CCC(=O)O)NC(=O)[C@H](CCCNC(=N)N)NC(=O)[C@H](CC(C)C)NC(=O)[C@H](CCCNC(=N)N)NC(=O)[C@H](CO)NC(=O)[C@H](CC(C)C)NC(=O)[C@H](C)NC(=O)[C@H](CO)NC(=O)[C@@H](NC(=O)[C@H](Cc1ccccc1)NC(=O)[C@H](N)CCCNC(=N)N)[C@@H](C)O)C(=O)N[C@H](C(=O)O)C(C)C [Peptide 129] (H-[dR]FTSALSRLREGARLQRLLQGLV-OH),1140 ± 281
4,CC(C)C[C@H](NC(=O)CNC(=O)[C@H](CCC(N)=O)NC(=O)[C@H](CC(C)C)NC(=O)[C@H](CC(C)C)NC(=O)[C@H](CCCNC(=N)N)NC(=O)[C@H](CCC(N)=O)NC(=O)[C@H](CC(C)C)NC(=O)[C@H](CCCNC(=N)N)NC(=O)[C@H](C)NC(=O)CNC(=O)[C@H](CCC(=O)O)NC(=O)[C@H](CCCNC(=N)N)NC(=O)[C@H](C)NC(=O)[C@H](CCCNC(=N)N)NC(=O)[C@H](CO)NC(=O)[C@H](CC(C)C)NC(=O)[C@H](CCC(=O)O)NC(=O)[C@H](CO)NC(=O)[C@@H](NC(=O)[C@H](Cc1ccccc1)NC(=O)[C@H](N)CCCNC(=N)N)[C@@H](C)O)C(=O)N[C@H](C(=O)O)C(C)C [Peptide 133] (H-[dR]FTSELSRAREGARLQRLLQGLV-OH),884 ± 169
5,CC(C)C[C@H](NC(=O)CNC(=O)[C@H](CCC(N)=O)NC(=O)[C@H](CC(C)C)NC(=O)[C@H](CC(C)C)NC(=O)[C@H](CCCNC(=N)N)NC(=O)[C@H](C)NC(=O)[C@H](CC(C)C)NC(=O)[C@H](CCCNC(=N)N)NC(=O)[C@H](C)NC(=O)CNC(=O)[C@H](CCC(=O)O)NC(=O)[C@H](CCCNC(=N)N)NC(=O)[C@H](CC(C)C)NC(=O)[C@H](CCCNC(=N)N)NC(=O)[C@H](CO)NC(=O)[C@H](CC(C)C)NC(=O)[C@H](CCC(=O)O)NC(=O)[C@H](CO)NC(=O)[C@@H](NC(=O)[C@H](Cc1ccccc1)NC(=O)[C@H](N)CCCNC(=N)N)[C@@H](C)O)C(=O)N[C@H](C(=O)O)C(C)C [Peptide 139] (H-[dR]FTSELSRLREGARLARLLQGLV-OH),1020 ± 107
6,CC(C)C[C@H](NC(=O)CNC(=O)[C@H](CCC(N)=O)NC(=O)[C@H](CC(C)C)NC(=O)[C@H](CC(C)C)NC(=O)[C@H](C)NC(=O)[C@H](CCC(N)=O)NC(=O)[C@H](CC(C)C)NC(=O)[C@H](CCCNC(=N)N)NC(=O)[C@H](C)NC(=O)CNC(=O)[C@H](CCC(=O)O)NC(=O)[C@H](CCCNC(=N)N)NC(=O)[C@H](CC(C)C)NC(=O)[C@H](CCCNC(=N)N)NC(=O)[C@H](CO)NC(=O)[C@H](CC(C)C)NC(=O)[C@H](CCC(=O)O)NC(=O)[C@H](CO)NC(=O)[C@@H](NC(=O)[C@H](Cc1ccccc1)NC(=O)[C@H](N)CCCNC(=N)N)[C@@H](C)O)C(=O)N[C@H](C(=O)O)C(C)C [Peptide 140] (H-[dR]FTSELSRLREGARLQALLQGLV-OH),1490 ± 218
7,CC(C)C[C@H](NC(=O)CNC(=O)[C@H](CCC(N)=O)NC(=O)[C@H](CC(C)C)NC(=O)[C@H](CC(C)C)NC(=O)[C@H](CCCNC(=N)N)NC(=O)[C@H](CCC(N)=O)NC(=O)[C@H](CC(C)C)NC(=O)[C@H](CCCNC(=N)N)NC(=O)[C@H](C)NC(=O)CNC(=O)[C@H](CCC(=O)O)NC(=O)[C@H](CCCNC(=N)N)NC(=O)[C@H](CC(C)C)NC(=O)[C@H](C)NC(=O)[C@H](CO)NC(=O)[C@H](CC(C)C)NC(=O)[C@H](CCC(=O)O)NC(=O)[C@H](CO)NC(=O)[C@@H](NC(=O)[C@H](Cc1ccccc1)NC(=O)[C@H](N)CCCNC(=N)N)[C@@H](C)O)C(=O)N[C@H](C(=O)O)C(C)C [Peptide 132] (H-[dR]FTSELSALREGARLQRLLQGLV-OH),2480 ± 579
8,CC(C)C[C@H](NC(=O)CNC(=O)[C@H](CCC(N)=O)NC(=O)[C@H](CC(C)C)NC(=O)[C@H](CC(C)C)NC(=O)[C@H](CCCNC(=N)N)NC(=O)[C@H](CCC(N)=O)NC(=O)[C@H](CC(C)C)NC(=O)[C@H](CCCNC(=N)N)NC(=O)[C@H](C)NC(=O)CNC(=O)[C@H](CCC(=O)O)NC(=O)[C@H](C)NC(=O)[C@H](CC(C)C)NC(=O)[C@H](CCCNC(=N)N)NC(=O)[C@H](CO)NC(=O)[C@H](CC(C)C)NC(=O)[C@H](CCC(=O)O)NC(=O)[C@H](CO)NC(=O)[C@@H](NC(=O)[C@H](Cc1ccccc1)NC(=O)[C@H](N)CCCNC(=N)N)[C@@H](C)O)C(=O)N[C@H](C(=O)O)C(C)C [Peptide 134] (H-[dR]FTSELSRLAEGARLQRLLQGLV-OH),1580 ± 77
